{"source": "patent US9040727B2", "about": "“Histone deacetylase inhibitor of benzamides and use thereof” (Shanghai Institute of Pharmaceutical Industry, priority 2011, dated 2015)", "key": {"HDAC1": {"biological_target": "HDAC1 (Homo sapiens (Human), UniProt Q13547)", "sequence (Q13547 whole entry)": "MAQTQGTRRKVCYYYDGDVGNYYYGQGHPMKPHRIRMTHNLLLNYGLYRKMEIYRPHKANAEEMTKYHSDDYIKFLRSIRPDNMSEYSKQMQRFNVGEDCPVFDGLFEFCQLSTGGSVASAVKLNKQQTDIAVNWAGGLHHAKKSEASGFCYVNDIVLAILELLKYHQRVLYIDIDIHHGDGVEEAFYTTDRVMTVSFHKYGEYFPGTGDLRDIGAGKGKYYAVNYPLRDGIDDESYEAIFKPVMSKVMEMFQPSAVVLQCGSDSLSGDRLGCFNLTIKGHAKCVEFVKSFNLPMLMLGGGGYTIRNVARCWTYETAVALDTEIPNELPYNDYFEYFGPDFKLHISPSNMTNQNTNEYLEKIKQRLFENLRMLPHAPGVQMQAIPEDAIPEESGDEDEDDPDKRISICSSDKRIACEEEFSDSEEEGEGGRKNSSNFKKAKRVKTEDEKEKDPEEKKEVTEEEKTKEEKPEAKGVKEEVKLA", "assay": "In vitro inhibitory activity towards HDAC1 (HDAC Inhibitor Drug Screening Kit)", "format": "biochemical", "description": "(1) The compounds to be tested were each individually prepared as 10 μM and 1 μM solutions and their inhibitory activities towards HDAC1 at these concentrations were tested.\nEach dilution sample was placed in two wells and the enzyme inhibition IC50 of the compound was tested."}, "[1]": {"system": "A549 human lung cancer cells", "assay": "In vitro anti-proliferative effect, CCK-8 method", "format": "cell-based", "details": "Homo sapiens", "description": "(§1) The inhibitory activities of the compounds towards Hut78 T lymphocytic leukemia cells, Jurkat E6-1 human T-cell lymphoma, A549 human lung cancer cells, K562 human chronic myelogenous leukemia cells, Hep3B2.1-7 human liver cancer cells, MDA-MB-435s human breast cancer cells, Colo320 human rectal cancer cell line, and PC-3 human prostate cancer were determined. The inhibition percentages as represented by IC50 values were obtained through CCK-8 method."}, "[2]": {"system": "Hep3B2.1-7 human liver cancer cells", "assay": "In vitro anti-proliferative effect, CCK-8 method", "format": "cell-based", "details": "Homo sapiens, Hep3B", "description": "as §1"}, "[3]": {"system": "Hut78 T lymphocytic leukemia cells", "assay": "In vitro anti-proliferative effect, CCK-8 method", "format": "cell-based", "details": "Homo sapiens, HuT78", "description": "as §1"}, "[4]": {"system": "Jurkat E6-1 human T-cell lymphoma", "assay": "In vitro anti-proliferative effect, CCK-8 method", "format": "cell-based", "details": "Homo sapiens", "description": "as §1"}, "[5]": {"system": "K562 human chronic myelogenous leukemia cells", "assay": "In vitro anti-proliferative effect, CCK-8 method", "format": "cell-based", "description": "as §1"}, "[6]": {"system": "MDA-MB-435s human breast cancer cells", "assay": "In vitro anti-proliferative effect, CCK-8 method", "format": "cell-based", "details": "Homo sapiens", "description": "as §1"}, "[7]": {"system": "PC-3 human prostate cancer", "assay": "In vitro anti-proliferative effect, CCK-8 method", "format": "cell-based", "details": "Homo sapiens", "description": "as §1"}, "hERG potassium channel": {"biological_target": "hERG potassium channel (Homo sapiens (Human), UniProt Q12809)", "sequence (Q12809 whole entry)": "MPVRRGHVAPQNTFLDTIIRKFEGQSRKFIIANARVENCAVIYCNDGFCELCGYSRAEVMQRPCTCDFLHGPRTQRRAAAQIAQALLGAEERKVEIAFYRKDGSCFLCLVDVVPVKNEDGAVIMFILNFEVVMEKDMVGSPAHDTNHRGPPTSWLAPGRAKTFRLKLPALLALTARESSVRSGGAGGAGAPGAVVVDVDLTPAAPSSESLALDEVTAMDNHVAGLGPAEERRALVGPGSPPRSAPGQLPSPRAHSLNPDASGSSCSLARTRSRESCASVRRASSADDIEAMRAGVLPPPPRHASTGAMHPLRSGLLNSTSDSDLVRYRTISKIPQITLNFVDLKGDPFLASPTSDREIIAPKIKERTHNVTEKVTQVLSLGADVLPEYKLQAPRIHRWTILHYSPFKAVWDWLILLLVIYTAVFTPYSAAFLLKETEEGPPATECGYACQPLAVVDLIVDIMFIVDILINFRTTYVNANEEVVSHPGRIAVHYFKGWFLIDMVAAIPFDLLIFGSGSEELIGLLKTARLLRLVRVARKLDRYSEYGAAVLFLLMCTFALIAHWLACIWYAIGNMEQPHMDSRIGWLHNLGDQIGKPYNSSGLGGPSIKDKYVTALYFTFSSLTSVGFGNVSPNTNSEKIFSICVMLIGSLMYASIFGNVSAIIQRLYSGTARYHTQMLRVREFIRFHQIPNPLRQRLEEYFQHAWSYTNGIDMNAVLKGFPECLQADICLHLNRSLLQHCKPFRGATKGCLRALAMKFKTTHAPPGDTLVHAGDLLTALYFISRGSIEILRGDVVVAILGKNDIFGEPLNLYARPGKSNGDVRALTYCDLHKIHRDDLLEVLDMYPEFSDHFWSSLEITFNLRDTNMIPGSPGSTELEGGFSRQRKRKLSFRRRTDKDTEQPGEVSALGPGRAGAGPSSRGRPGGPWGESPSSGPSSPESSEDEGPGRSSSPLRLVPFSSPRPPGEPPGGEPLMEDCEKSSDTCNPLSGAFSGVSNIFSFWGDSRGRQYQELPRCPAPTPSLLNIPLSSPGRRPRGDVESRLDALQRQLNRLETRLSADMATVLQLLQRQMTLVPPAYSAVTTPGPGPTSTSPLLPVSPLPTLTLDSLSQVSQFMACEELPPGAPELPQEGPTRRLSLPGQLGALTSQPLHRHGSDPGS", "assay": "Effects on hERG potassium channel", "format": "cell-based"}, "[8]": {"assay": "Preliminary pharmacokinetic experiment", "details": "in vivo, rat"}}, "note": "Where two headings read alike, the source gives them in different places."}
{"smiles": "Nc1ccc(F)cc1NC(=O)c1ccc(CNC(=O)c2cc3ccccc3o2)cc1", "note": "[Compound V-9]", "values": [{"measurement": "inhibitory activity against HDAC1 compared with MS-275 (by IC50)", "setting": "HDAC1; comparison with MS-275", "result": "better inhibitory activities against HDAC1 as compared with MS-275"}, {"measurement": "inhibition at 1 µM", "setting": "HDAC1; compound at 1 μM", "result": 37.9, "unit": "%"}, {"measurement": "inhibition at 10 µM", "setting": "HDAC1; compound at 10 μM", "result": 69.1, "unit": "%"}, {"measurement": "IC50", "setting": "[1]", "result": 21.2, "unit": "µM"}, {"measurement": "IC50", "setting": "[2]", "result": 15.9, "unit": "µM"}, {"measurement": "IC50", "setting": "[3]", "result": 3.46, "unit": "µM"}, {"measurement": "IC50", "setting": "[4]", "result": 2.13, "unit": "µM"}, {"measurement": "IC50", "setting": "[5]", "result": 17.1, "unit": "µM"}, {"measurement": "IC50", "setting": "[6]", "result": 14.8, "unit": "µM"}, {"measurement": "IC50", "setting": "[7]", "result": 2.24, "unit": "µM"}, {"measurement": "inhibition at 10 µM", "setting": "hERG potassium channel; human, hERG potassium current, 10 μM, read-out: Maximum inhibition percentage at 10 μM", "result": "19.9 ± 6.7", "unit": "%"}, {"measurement": "IC50", "setting": "hERG potassium channel; read-out: Half inhibition concentration for the effect on hERG potassium current IC50", "result": "> 10", "unit": "µM"}, {"measurement": "half-life", "setting": "[8]; iv, 2 mg/kg, i.v., read-out: Intravenous half-life (converted)", "result": 0.95, "unit": "h"}, {"measurement": "bioavailability", "setting": "[8]; oral", "result": 28.8, "unit": "%"}, {"measurement": "half-life", "setting": "[8]; oral, read-out: Oral half-life (converted)", "result": 6.37, "unit": "h"}]}
